Holding throughout (format): cell-based
For one test, the target named is T1, CaV2.2 (Homo sapiens, UniProt Q00975).
T1 construct: expressed in transfected cells; host or cells: HEK293
The test can be described thus: VIPR optical membrane potential assay with electrical stimulation, CaV2.2. Particulars: Table 9, CaV 2.2 receptors. The method in brief:
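HEK293 cells stably expressing CaV2.2 stained with CC2-DMPE/DiSBAC2(3) voltage-sensitive dyes (10 μM final CC2-DMPE, 30 min, RT), then compound added and cells electrically stimulated for 3-5 s. Read-out: background-subtracted 460/580 nm emission ratio; response R=Rf/Ri (post- vs pre-stimulus ratio); antagonism seen as reduced response.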

The next test deals with T2, NaV1.3 (Homo sapiens, UniProt Q9NY46).
T2 construct: expressed in transfected cells; host or cells: HEK293
The test is described as follows: VIPR optical membrane potential assay with electrical stimulation, NaV1.3. Particulars: Table 9, NaV 1.3 receptors. The method in brief: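 HEK293 cells stably expressing NaV1.3, stained with CC2-DMPE (10 μM final) then DiSBAC2(3) with ABSC1, 30 min each at RT; compounds added with oxonol. Electrical stimulation for 3 s; 460/580 nm background-subtracted emission ratio Rf/Ri, normalised to tetracaine (positive) and untreated (negative) controls.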

The target in another test is NaV1.8 (Homo sapiens, UniProt Q9Y5Y9). The test is described as follows: VIPR optical membrane potential assay, NaV1.8 (other subtypes in an analogous mode). Particulars: Table 9, NaV 1.8 receptors. The procedure: Antagonist properties of test compounds were assessed as follows. Cells expressing the NaV of interest were placed into microtiter plates. After an incubation period, the cells were stained with fluorescent dyes sensitive to the transmembrane potential. The test compounds were added to the microtiter plate. The cells were stimulated with either chemical or electrical means to evoke a NaV dependent membrane potential change from unblocked channels, which was detected and measured with trans-membrane potential-sensitive dyes. Antagonists were detected as a decreased membrane potential response to the stimulus.
24 hours before the assay on VIPR, CHO cells endogenously expressing a NaV 1.2 type voltage-gated NaV are seeded in 96-well poly-lysine coated plates at 60,000 cells per well. […] Plates are incubated in the dark for 30 minutes at room temperature. • 4) While the cells are being stained with coumarin, a […] oxonol solution in BS#2 is prepared. […] As before, the residual volume should be 40 μL. • 6) Upon removing the bath, the cells are loaded with 80 μL of the DiSBAC2(3) solution, after which test compound, dissolved in DMSO, is added to achieve the desired test concentration to each well from the drug addition plate and mixed thoroughly. The volume in the well should be roughly 121 μL. The cells are then incubated for 20-30 minutes. • 7) Once the incubation is complete, the cells are ready to be assayed on VIPR® with a sodium addback protocol. 120 μL of Bath solution #1 is added to stimulate the NaV dependent depolarization. […] tetracaine was used as an antagonist positive control for block of the NaV channel. Analysis of VIPR® Data:
The following is an example of how NaV1.3 inhibition activity is measured using the optical membrane potential method#2. Other subtypes are performed in an analogous mode in a cell line expressing the NaV of interest.

T2 sequence (Q9NY46 whole entry): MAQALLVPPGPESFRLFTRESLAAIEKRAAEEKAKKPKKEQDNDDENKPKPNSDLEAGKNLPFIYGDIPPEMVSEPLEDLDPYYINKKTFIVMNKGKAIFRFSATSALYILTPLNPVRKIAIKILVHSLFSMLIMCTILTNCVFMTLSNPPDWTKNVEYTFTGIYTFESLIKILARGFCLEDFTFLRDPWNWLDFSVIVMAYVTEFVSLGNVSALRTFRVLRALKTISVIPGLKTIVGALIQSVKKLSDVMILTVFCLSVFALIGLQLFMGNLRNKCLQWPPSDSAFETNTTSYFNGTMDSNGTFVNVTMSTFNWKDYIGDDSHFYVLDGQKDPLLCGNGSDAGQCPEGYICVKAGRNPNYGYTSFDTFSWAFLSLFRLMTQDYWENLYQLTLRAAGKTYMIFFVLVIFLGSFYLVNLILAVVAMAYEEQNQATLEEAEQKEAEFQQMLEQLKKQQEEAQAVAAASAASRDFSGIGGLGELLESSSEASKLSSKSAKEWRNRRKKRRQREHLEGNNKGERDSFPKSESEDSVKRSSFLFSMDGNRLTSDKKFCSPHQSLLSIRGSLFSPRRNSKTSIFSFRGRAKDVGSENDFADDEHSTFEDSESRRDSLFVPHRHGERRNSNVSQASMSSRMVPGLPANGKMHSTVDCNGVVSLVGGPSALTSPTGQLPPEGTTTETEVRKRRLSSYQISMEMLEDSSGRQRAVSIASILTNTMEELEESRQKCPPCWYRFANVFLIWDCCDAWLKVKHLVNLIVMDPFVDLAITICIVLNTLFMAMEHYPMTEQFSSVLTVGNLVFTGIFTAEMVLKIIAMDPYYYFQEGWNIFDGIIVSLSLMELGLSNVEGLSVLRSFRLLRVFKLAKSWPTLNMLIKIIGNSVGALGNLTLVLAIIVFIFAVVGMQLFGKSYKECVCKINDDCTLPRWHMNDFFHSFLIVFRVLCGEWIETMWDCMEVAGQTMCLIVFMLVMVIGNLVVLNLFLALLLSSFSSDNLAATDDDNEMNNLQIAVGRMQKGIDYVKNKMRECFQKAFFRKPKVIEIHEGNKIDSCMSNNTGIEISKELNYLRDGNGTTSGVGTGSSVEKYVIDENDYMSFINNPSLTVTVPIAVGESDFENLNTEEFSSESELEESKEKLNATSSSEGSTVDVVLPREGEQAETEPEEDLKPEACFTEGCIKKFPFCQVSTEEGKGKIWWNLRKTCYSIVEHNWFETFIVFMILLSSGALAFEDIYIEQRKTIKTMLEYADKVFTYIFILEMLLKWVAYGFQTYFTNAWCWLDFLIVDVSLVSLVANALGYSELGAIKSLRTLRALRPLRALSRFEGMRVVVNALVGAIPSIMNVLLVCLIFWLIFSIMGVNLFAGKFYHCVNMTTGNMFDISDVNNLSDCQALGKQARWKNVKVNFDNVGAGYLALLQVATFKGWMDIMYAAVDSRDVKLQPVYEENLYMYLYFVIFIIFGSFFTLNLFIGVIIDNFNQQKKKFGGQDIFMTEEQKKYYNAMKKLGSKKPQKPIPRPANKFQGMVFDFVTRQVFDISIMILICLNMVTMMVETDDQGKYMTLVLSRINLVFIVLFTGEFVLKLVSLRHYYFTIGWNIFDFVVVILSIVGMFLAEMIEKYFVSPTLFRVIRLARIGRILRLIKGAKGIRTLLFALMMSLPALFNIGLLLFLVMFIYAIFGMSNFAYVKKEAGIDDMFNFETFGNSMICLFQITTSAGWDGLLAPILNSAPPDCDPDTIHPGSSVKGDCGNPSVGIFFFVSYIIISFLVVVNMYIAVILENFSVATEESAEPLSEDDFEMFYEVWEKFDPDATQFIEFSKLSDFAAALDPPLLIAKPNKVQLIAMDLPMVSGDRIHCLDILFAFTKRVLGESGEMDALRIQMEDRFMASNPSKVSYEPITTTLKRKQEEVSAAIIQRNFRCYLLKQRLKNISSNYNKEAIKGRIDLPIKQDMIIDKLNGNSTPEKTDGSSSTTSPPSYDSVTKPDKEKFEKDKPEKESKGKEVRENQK
Sequence of NaV1.8 (Q9Y5Y9 whole entry): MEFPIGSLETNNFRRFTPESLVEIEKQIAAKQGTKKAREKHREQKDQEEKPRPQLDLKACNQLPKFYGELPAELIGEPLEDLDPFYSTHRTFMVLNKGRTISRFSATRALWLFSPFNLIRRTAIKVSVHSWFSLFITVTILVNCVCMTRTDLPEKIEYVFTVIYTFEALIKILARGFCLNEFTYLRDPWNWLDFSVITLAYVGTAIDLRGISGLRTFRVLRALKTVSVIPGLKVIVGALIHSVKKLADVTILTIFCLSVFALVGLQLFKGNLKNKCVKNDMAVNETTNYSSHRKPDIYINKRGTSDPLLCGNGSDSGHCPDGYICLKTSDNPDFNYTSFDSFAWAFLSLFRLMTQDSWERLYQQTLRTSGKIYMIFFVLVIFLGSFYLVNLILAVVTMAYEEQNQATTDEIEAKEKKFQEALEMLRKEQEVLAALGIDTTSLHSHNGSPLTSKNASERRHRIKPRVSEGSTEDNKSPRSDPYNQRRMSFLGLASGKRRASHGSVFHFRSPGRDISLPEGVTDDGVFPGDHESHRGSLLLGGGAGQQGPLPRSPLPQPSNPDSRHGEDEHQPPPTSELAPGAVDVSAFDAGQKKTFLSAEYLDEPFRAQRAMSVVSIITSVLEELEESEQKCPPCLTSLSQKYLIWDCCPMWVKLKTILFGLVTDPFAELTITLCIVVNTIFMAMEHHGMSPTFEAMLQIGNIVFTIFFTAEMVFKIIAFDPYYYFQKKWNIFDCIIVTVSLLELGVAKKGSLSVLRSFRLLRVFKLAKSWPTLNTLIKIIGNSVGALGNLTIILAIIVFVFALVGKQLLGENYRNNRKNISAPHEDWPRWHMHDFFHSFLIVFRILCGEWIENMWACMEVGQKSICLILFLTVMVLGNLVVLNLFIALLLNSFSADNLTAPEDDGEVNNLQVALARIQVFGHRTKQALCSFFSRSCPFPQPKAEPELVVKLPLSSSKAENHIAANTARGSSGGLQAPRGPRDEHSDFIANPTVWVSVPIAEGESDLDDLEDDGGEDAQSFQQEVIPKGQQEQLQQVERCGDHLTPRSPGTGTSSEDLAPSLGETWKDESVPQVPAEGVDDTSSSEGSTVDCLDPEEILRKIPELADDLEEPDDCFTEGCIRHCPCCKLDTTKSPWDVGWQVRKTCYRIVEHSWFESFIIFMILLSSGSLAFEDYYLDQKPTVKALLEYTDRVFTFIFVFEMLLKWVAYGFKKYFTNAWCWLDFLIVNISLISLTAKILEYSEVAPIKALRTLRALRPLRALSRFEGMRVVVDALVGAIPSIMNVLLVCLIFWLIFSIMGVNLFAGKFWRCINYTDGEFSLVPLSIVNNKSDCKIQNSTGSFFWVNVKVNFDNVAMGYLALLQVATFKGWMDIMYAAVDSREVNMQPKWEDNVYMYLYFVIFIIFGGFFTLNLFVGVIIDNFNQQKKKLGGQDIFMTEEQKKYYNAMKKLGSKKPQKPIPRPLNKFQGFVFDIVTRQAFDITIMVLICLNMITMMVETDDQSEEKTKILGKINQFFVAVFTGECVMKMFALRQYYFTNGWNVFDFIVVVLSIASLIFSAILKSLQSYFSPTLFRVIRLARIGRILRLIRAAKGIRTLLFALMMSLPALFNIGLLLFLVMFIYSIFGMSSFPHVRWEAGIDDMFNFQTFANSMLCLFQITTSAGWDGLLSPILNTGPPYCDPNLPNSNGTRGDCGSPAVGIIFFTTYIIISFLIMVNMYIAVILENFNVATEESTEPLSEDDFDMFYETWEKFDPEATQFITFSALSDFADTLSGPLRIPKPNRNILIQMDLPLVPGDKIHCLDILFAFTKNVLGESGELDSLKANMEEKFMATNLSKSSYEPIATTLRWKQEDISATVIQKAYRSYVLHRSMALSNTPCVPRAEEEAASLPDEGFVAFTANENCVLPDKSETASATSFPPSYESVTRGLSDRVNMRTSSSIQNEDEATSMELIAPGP

One may read the IC50 as the concentration needed to halve the response being measured. A low value points to higher potency. As to `CC(C)N(Cc1ccccc1)C(=O)c1cnc(NC2CC3CCC2C3)nc1-c1ccccc1F` (stereo not drawn) [compound 29], the IC50 was below 2 µM against CaV2.2, 2 to 10 µM on NaV1.3 and 2 to 10 µM on NaV1.8.
For the molecule `O=C(c1cnc(N2CCSCC2)nc1-c1ccccc1F)N(Cc1ccc2c(c1)CCO2)C1CC1` [compound 30], the figures for the IC50 against CaV2.2, against NaV1.3 and on NaV1.8 were 2 to 10 µM, 2 to 10 µM and above 10 µM, respectively.
With `Cc1nc(N2CCOCC2)nc(-c2ccccc2F)c1C(=O)N(Cc1ccc(C(C)(C)C)cc1)C(C)C` [compound 31], the results for the IC50 on CaV2.2, at NaV1.3 and on NaV1.8 were 2 to 10 µM, 2 to 10 µM and above 10 µM, respectively.
With `Cc1nc(N2CCCCC2)nc(-c2ccccc2F)c1C(=O)N(Cc1ccc(C(C)(C)C)cc1)C(C)C` [compound 32], the figures for the IC50 against CaV2.2, against NaV1.3 and against NaV1.8 were 2 to 10 µM, 2 to 10 µM and above 10 µM, respectively.
For `O=C(NC1Cc2ccccc2C1)c1cnc(N2CCOCC2)nc1-c1ccccc1F` [compound 33], the IC50 at CaV2.2, against NaV1.3 and on NaV1.8 was above 10 µM throughout.
On to `COc1cccc(N(C(=O)c2cnc(N3CCC4CCCCC4C3)nc2-c2ccccc2F)C(C)C)c1` (stereo not drawn) [compound 34], for which the values for the IC50 on CaV2.2, at NaV1.3 and against NaV1.8 were 2 to 10 µM, 2 to 10 µM and above 10 µM, respectively.
With `COc1cccc(N(C(=O)c2cnc(N3CCCCC3)nc2-c2ccccc2F)C2CCOCC2)c1` [compound 35], the IC50 against CaV2.2, against NaV1.3 and against NaV1.8 was above 10 µM in each case.
In the case of `COc1ccc(CN(C(=O)c2cnc(N3CCCCC3)nc2-c2ccccc2Cl)C2CC2)cc1` [compound 36], the IC50 on CaV2.2 was 2 to 10 µM; at NaV1.3, 2 to 10 µM; against NaV1.8, above 10 µM.
For the molecule `O=C(NC(CN1CCCC1)c1ccccc1)c1cnc(N2CCOCC2)nc1-c1ccccc1F` (stereo not drawn) [compound 37], the IC50 on CaV2.2, on NaV1.3 and against NaV1.8 was above 10 µM throughout.
In the case of `CN1CCN(c2ncc(C(=O)N(Cc3ccc(F)cc3)C3CC3)c(-c3ccccc3F)n2)CC1` [compound 39], the IC50 against CaV2.2, at NaV1.3 and against NaV1.8 was above 10 µM in each case.
As for `O=C(c1cnc(N2CCOCC2)nc1-c1ccccc1F)N(Cc1cccc2ccccc12)C1CC1` [compound 40], the IC50 at CaV2.2 was above 10 µM; against NaV1.3, 2 to 10 µM; at NaV1.8, above 10 µM.
Regarding `CC(C)N(C(=O)c1cnc(N2CCCCC2)nc1-c1ccccc1F)c1cccc(C(C)(C)C)c1` [compound 41], the IC50 at CaV2.2 was above 10 µM; against NaV1.3, 2 to 10 µM; against NaV1.8, above 10 µM.
As for `COc1cccc(N(C(=O)c2cnc(N3CCCCC3)nc2-c2ccccc2F)C2CCCC2)c1` [compound 42], the IC50 against CaV2.2 is 2 to 10 µM; on NaV1.3 it was 2 to 10 µM; on NaV1.8 it was above 10 µM.
`COc1ccc(N(C(=O)c2cnc(N3CCCCC3)nc2-c2ccccc2Cl)C(C)C)cc1` [compound 43]: the values for the IC50 on CaV2.2, against NaV1.3 and against NaV1.8 were 2 to 10 µM, 2 to 10 µM and above 10 µM, respectively.
On to `COc1ccccc1C1CCN(C(=O)c2cnc(N3CCOCC3)nc2-c2ccccc2F)CC1` [compound 44], for which the IC50 at CaV2.2 is above 10 µM; on NaV1.3, 2 to 10 µM; against NaV1.8 it was 2 to 10 µM.
For `CC(C)N(Cc1ccccc1)C(=O)c1cnc(N2CCC(O)C2)nc1-c1ccccc1F` (stereo not drawn) [compound 45], the IC50 on CaV2.2, against NaV1.3 and on NaV1.8 was above 10 µM in each case.
Take `O=C(NCCCc1ccccc1)c1cnc(N2CCOCC2)nc1-c1ccc(Oc2ccccc2)cc1` [compound 46]: the IC50 against CaV2.2, against NaV1.3 and at NaV1.8 was above 10 µM each time.
`O=C(c1cnc(N2CCSCC2)nc1-c1ccccc1F)N(Cc1ccccc1)C1CCCCC1` [compound 47]: the figures for the IC50 against CaV2.2, at NaV1.3 and on NaV1.8 were 2 to 10 µM, 2 to 10 µM and above 10 µM, respectively.
Regarding `O=C(c1cnc(N2CCSCC2)nc1-c1ccccc1F)N(Cc1ccc(F)cc1)C1CC1` [compound 48], the IC50 against CaV2.2 was 2 to 10 µM; at NaV1.3, 2 to 10 µM; at NaV1.8, above 10 µM.
Consider `CCC(COC)N(Cc1ccccc1)C(=O)c1c(C)nc(N2CCOCC2)nc1-c1ccccc1F` (stereo not drawn) [compound 49], for which the IC50 was above 10 µM against CaV2.2, 2 to 10 µM on NaV1.3 and above 10 µM on NaV1.8.
Regarding `CC(C)N(Cc1ccc(N2CCCC2)cc1)C(=O)c1cnc(N2CCCCC2)nc1-c1ccccc1F` [compound 50], the IC50 was 2 to 10 µM on CaV2.2, above 10 µM against NaV1.3 and above 10 µM on NaV1.8.
As to `CC(C)N(Cc1ccccc1)C(=O)c1cnc(Nc2ccc3c(c2)OCO3)nc1-c1ccccc1F` [compound 51], the IC50 on CaV2.2 was 2 to 10 µM; at NaV1.3, 2 to 10 µM; against NaV1.8, above 10 µM.
In the case of `CC1CCc2ccccc2N1C(=O)c1cnc(N2CCOCC2)nc1-c1ccccc1F` (stereo not drawn) [compound 52], the IC50 against CaV2.2 is 2 to 10 µM; against NaV1.3, 2 to 10 µM; against NaV1.8, above 10 µM.
`O=C(c1cnc(N2CCOCC2)nc1-c1ccccc1F)N(Cc1ccc2c(c1)CCO2)C1CC1` [compound 53]: the IC50 was 2 to 10 µM against CaV2.2, 2 to 10 µM against NaV1.3 and above 10 µM against NaV1.8.
Take `CC(C)N(C(=O)c1cnc(N2CCC3CCCCC3C2)nc1-c1ccccc1F)c1cccc(C#N)c1` (stereo not drawn) [compound 54]: the IC50 was 2 to 10 µM against CaV2.2, 2 to 10 µM against NaV1.3 and above 10 µM against NaV1.8.
Consider `COc1cccc(CN(C(=O)c2cnc(N3CCCCC3)nc2-c2ccccc2Cl)C(C)C)c1` [compound 55], for which the IC50 against CaV2.2, on NaV1.3 and against NaV1.8 was 2 to 10 µM throughout.
Consider `COc1cccc(CN(C(=O)c2cnc(N3CCOCC3)nc2-c2ccccc2F)C2CC2)c1` [compound 56], for which the IC50 against CaV2.2 was 2 to 10 µM; at NaV1.3, above 10 µM; against NaV1.8, above 10 µM.
As for `CCC(=O)C1(c2ccccc2)CCN(C(=O)c2cnc(N3CCOCC3)nc2-c2ccccc2F)CC1` [compound 57], the IC50 at CaV2.2, against NaV1.3 and at NaV1.8 was above 10 µM in each case.
On to `COc1cccc(N(C(=O)c2cnc(N3CCCCC3)nc2-c2ccccc2Cl)C2CC2)c1` [compound 58], for which the IC50 against CaV2.2, against NaV1.3 and against NaV1.8 was above 10 µM throughout.
Regarding `CC(C)N(Cc1ccc(C(C)(C)C)cc1)C(=O)c1cnc(N2CCSCC2)nc1-c1ccccc1F` [compound 59], the IC50 was below 2 µM on CaV2.2, 2 to 10 µM against NaV1.3 and 2 to 10 µM on NaV1.8.
With `O=C(c1cnc(N2CCOCC2)nc1-c1ccccc1F)N(Cc1cccc(-c2ccncc2)c1)C1CC1` [compound 60], the IC50 was 2 to 10 µM against CaV2.2, above 10 µM on NaV1.3 and above 10 µM against NaV1.8.
Turning to `COc1cccc(N(C(=O)c2cnc(N3CCSCC3)nc2-c2ccccc2F)C(C)C)c1` [compound 62], the IC50 against CaV2.2 was 2 to 10 µM; against NaV1.3 it was 2 to 10 µM; against NaV1.8, above 10 µM.
Regarding `Cc1ccc(Nc2ncc(C(=O)N(Cc3ccccc3)C(C)C)c(-c3ccccc3F)n2)cc1` [compound 63], the IC50 at CaV2.2, on NaV1.3 and at NaV1.8 was above 10 µM throughout.
In the case of `O=C(c1cnc(N2CCOCC2)nc1-c1ccccc1F)N(Cc1ccccc1)C1CCCCC1` [compound 64], the IC50 against CaV2.2 is 2 to 10 µM; on NaV1.3, 2 to 10 µM; at NaV1.8 it was above 10 µM.
With `COc1cccc(N(C(=O)c2cnc(N3CCC4CCCCC4C3)nc2-c2ccccc2F)C2CCC2)c1` (stereo not drawn) [compound 65], the IC50 on CaV2.2 is 2 to 10 µM; against NaV1.3, above 10 µM; against NaV1.8, above 10 µM.
As to `CC(C)N(C(=O)c1cnc(N2CCCCC2)nc1-c1ccccc1F)c1cccc(O)c1` [compound 66], the IC50 against CaV2.2 was 2 to 10 µM; on NaV1.3, above 10 µM; on NaV1.8, above 10 µM.
On to `CC(C)N(C(=O)c1cnc(N2CCOCC2)nc1-c1ccccc1F)c1ccc2c(c1)OCCO2` [compound 67], for which the IC50 against CaV2.2, against NaV1.3 and on NaV1.8 was above 10 µM in each case.
For the molecule `COc1cccc(N(C(=O)c2cnc(N3CCC4CCCCC4C3)nc2-c2ccccc2F)C2CCOCC2)c1` (stereo not drawn) [compound 68], the IC50 against CaV2.2 is 2 to 10 µM; on NaV1.3, above 10 µM; against NaV1.8, above 10 µM.

The values are drawn from patent US8546414B2, “Ion channel modulators and methods of use” (Vertex Pharmaceuticals Incorporated, priority 2004, dated 2013).
